Among the test systems are CCRF-CEM leukemia; COLO 205 colon; HCC-2998 colon; HL-60(TB) leukemia; IGROV1 ovarian; MALME-3M melanoma; MDA-MB-435; NCI-H522 lung; OVCAR-5 ovarian; SF-268 CNS; SK-MEL-28 melanoma; SK-MEL-5 melanoma; SK-OV-3 ovarian; SNB-75 CNS; SR leukemia; TK-10 renal; U251 CNS; UACC-62 melanoma; EKVX NSCLC.
Common to all, as to assay: NCI anticancer screen, dose series, 48 h

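Compound exposure: 48 hours, 5 concentrations, 96-well plates. TGI: concentration producing complete growth inhibition.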 A value given as a limit tells only on which side of the number the result lay.

`COC(=O)c1cc2c(cc1CC(Cc1ccc3c(c1)CCCC3)C(=O)OC)CCCC2` (stereo unspecified): the TGI in the assay with CCRF-CEM leukemia was > 100 µM; with COLO 205 colon, > 100 µM; in the assay on HCC-2998 colon, 93.8 µM; in the assay with HL-60(TB) leukemia, 29.7 µM; with IGROV1 ovarian it was > 100 µM; with MALME-3M melanoma it was > 100 µM. Also, the TGI with MDA-MB-435, in the assay with NCI-H522 lung, with OVCAR-5 ovarian, with SF-268 CNS, in the assay with SK-MEL-28 melanoma and in the assay on SK-MEL-5 melanoma was > 100 µM in each case. In addition, the TGI in the assay with SK-OV-3 ovarian, with SNB-75 CNS, with SR leukemia, in the assay on TK-10 renal, with U251 CNS and in the assay with UACC-62 melanoma was > 100 µM in each case.
For the compound `c1ccc(CNc2nncc3[nH]cnc23)cc1`, the TGI in the assay on CCRF-CEM leukemia, with COLO 205 colon, with EKVX NSCLC, in the assay with HCC-2998 colon, in the assay on HL-60(TB) leukemia and in the assay with IGROV1 ovarian was > 100 µM in each case. In addition, the TGI in the assay with MALME-3M melanoma, in the assay on MDA-MB-435, in the assay with NCI-H522 lung, in the assay on OVCAR-5 ovarian, in the assay on SK-MEL-28 melanoma and with SK-MEL-5 melanoma was > 100 µM each time. The TGI in the assay with SK-OV-3 ovarian, in the assay on SNB-75 CNS, in the assay with SR leukemia, in the assay with TK-10 renal, in the assay with U251 CNS and with UACC-62 melanoma was > 100 µM each time.
Consider `COc1cc(-c2nc3ccccn3c2/N=C/c2cc(Br)cc(Br)c2O)ccc1O`, for which the TGI was 45.6 µM with CCRF-CEM leukemia; 74.3 µM in the assay on COLO 205 colon; 54.5 µM in the assay on EKVX NSCLC; > 100 µM in the assay on HCC-2998 colon; 46.4 µM in the assay with HL-60(TB) leukemia; 49.9 µM with IGROV1 ovarian. The TGI in the assay on MALME-3M melanoma is 57.8 µM; with MDA-MB-435 it was 72 µM; with NCI-H522 lung it was 58.2 µM; in the assay on OVCAR-5 ovarian it was > 100 µM; in the assay on SF-268 CNS it was 39.7 µM; in the assay on SK-MEL-28 melanoma, 40.7 µM. In addition, the TGI in the assay with SK-MEL-5 melanoma amounted to 72.4 µM; in the assay with SK-OV-3 ovarian it was 59 µM; with SNB-75 CNS, 66.6 µM; with SR leukemia, 62.7 µM; in the assay on TK-10 renal, 67.8 µM; with U251 CNS, 31.9 µM. Further, the TGI in the assay with UACC-62 melanoma is 72.4 µM.
Turning to `O=C(N/N=C\C=C\c1ccc([N+](=O)[O-])o1)C(=O)N/N=C\C=C\c1ccc([N+](=O)[O-])o1`, the TGI in the assay with CCRF-CEM leukemia was 3.55 µM; in the assay on COLO 205 colon, > 100 µM; in the assay with EKVX NSCLC, > 100 µM; in the assay with HCC-2998 colon, > 100 µM; in the assay on HL-60(TB) leukemia it was 87.1 µM; in the assay with IGROV1 ovarian it was > 100 µM. Moreover, the TGI in the assay on MALME-3M melanoma, in the assay with MDA-MB-435, with NCI-H522 lung, with OVCAR-5 ovarian, in the assay with SF-268 CNS and in the assay with SK-MEL-28 melanoma was > 100 µM in each case. The TGI with SK-MEL-5 melanoma, in the assay with SK-OV-3 ovarian, in the assay on SNB-75 CNS, in the assay with SR leukemia, in the assay with TK-10 renal and in the assay on U251 CNS was > 100 µM each time. For the same compound, the TGI in the assay on UACC-62 melanoma was > 100 µM.
Take `O=C(NCP(=O)(c1ccccc1)c1ccccc1)OCc1ccccc1`: the TGI in the assay with CCRF-CEM leukemia, in the assay on COLO 205 colon, in the assay with EKVX NSCLC, in the assay with HCC-2998 colon, with HL-60(TB) leukemia and in the assay on IGROV1 ovarian was > 100 µM each time. Besides, the TGI with MALME-3M melanoma, in the assay on MDA-MB-435, in the assay with NCI-H522 lung, in the assay with OVCAR-5 ovarian, in the assay on SF-268 CNS and in the assay with SK-MEL-28 melanoma was > 100 µM each time. Moreover, the TGI with SK-MEL-5 melanoma, in the assay with SK-OV-3 ovarian, in the assay on SNB-75 CNS, with SR leukemia, in the assay on TK-10 renal and in the assay on U251 CNS was > 100 µM throughout. Besides, the TGI in the assay on UACC-62 melanoma is > 100 µM.
`CCOC(=O)c1cc2c3ccn(Cc4ccccc4)c3c3c(C)[nH]oc3c2n1`: the TGI in the assay on CCRF-CEM leukemia, with COLO 205 colon, in the assay with EKVX NSCLC, in the assay on HCC-2998 colon, in the assay with HL-60(TB) leukemia and with IGROV1 ovarian was > 100 µM in each case. Further, the TGI with MALME-3M melanoma, with MDA-MB-435, in the assay on NCI-H522 lung, in the assay on OVCAR-5 ovarian, with SF-268 CNS and in the assay on SK-MEL-28 melanoma was > 100 µM each time. Moreover, the TGI with SK-MEL-5 melanoma, in the assay with SNB-75 CNS, with SR leukemia, in the assay with TK-10 renal, in the assay with U251 CNS and in the assay on UACC-62 melanoma was > 100 µM in each case.

(Values after PubChem BioAssay (NCI).)
